Assay results: PubChem BioAssay AID1963983 (Molecular Pharmacology Branch, DTP, NCI, 2024)
pIC50: −log10 of the molar value.

Tested on: 186277-243-T-J2-PDC multi-cell spheroid viability
Experiment: Anticancer human tumor 186277-243-T-J2-PDC patient-derived colon adenocarcinoma cell line growth inhibition [PI3K]
Conditions: for pIC50: curve of first compound; for viability, T/C: stronger effect = lower value; active = viability on the fitted dose curve at most 10% of control; inactive = the rest
Source text: Combinatorial screen of targeted agents with the PI3K inhibitors inavolisib, alpelisib, duvelisib, and copanlisib in multi-cell type tumor spheroids
A high-throughput screen of multi-cell type tumor spheroids was designed to identify active combinations of targeted small molecules and PI3K pathway inhibitors. Complex spheroids include a stromal component modeled by human endothelial cells (HUVEC) and fibroblasts modeled by human mesenchymal stem cells (MSCs). The concentration ranges selected for each drug and investigational agent were based upon clinically achievable concentrations if the clinical Cmax of the agent was known.
Compounds. The drugs and investigational agents: inavolisib (NSC800729), alpelisib (NSC765974), duvelisib (NSC772469), copanlisib (NSC816437), ipatasertib (NSC767898), afuresertib (NSC778305), talazoparib (NSC767125), sapanisertib (NSC764658), selumetinib (NSC741078), tovorafenib (DAY101, NSC766906), vemurafenib (NSC761431), ravoxertinib (NSC781343), sotorasib (NSC818433), MRTX1133 (NSC 836407), abemaciclib (NSC 768073), palbociclib (NSC758247), venetoclax (NSC 766270), SY5609 (NSC837396), enzalutamide (NSC755605), and darolutamide (NSC825331), were obtained from the National Cancer Institute (NCI) Developmental Therapeutics Program Chemical Repository. The FDA-approved anticancer drug set is available from the NCI Developmental Therapeutics Program. […] The stock solutions were prepared in dimethyl sulfoxide (DMSO, Sigma-Aldrich, St. Louis, MO, cat. D2650) at 800-fold the tested concentration and stored at -70 degrees C prior to their use. All drugs and investigational agents were tested over a range starting from a high concentration at or near the clinical Cmax and decreasing in half-log increments. If the clinical Cmax for an agent had not been determined, the highest concentration tested was 10 microM.
Cell Culture. All cells were maintained in an incubator at 37 degrees C and 5% CO2 with 95% humidity. The PDC lines were cultured according to standard operating procedures established by the NCI PDMR (https://pdmr.cancer.gov/sops/default.htm). All PDCs were thawed and cultured in Matrigel-coated flasks prepared with a working solution of 1X Ham's F-12 nutrient mix, without supplementation (Invitrogen, Waltham, MA, cat. 11765054), 100 U/mL penicillin-streptomycin (Invitrogen, cat. 15140122), and 2.5% Matrigel (Corning Inc., Corning, NY, cat. 354248) for the first three passages. The 354836-022-R-J1-PDC, 475296-252-R-J1-PDC, and 997726-040-R-J2-PDC lines were cultured in 6A media, which includes advanced DMEM/F-12 (Thermo Fisher Scientific, cat. 12634028), 10 mM HEPES (Thermo Fisher Scientific, cat. 15630080), 1X GlutaMAX supplement (Thermo Fisher Scientific, cat. 35050061), 0.1 mg/mL primocin (InvivoGen, San Diego, CA, cat. ant-pm-2), 10% defined fetal bovine serum, heat inactivated (HyClone Laboratories Inc., Logan, UT, cat. SH30070.03HI), 50% L-WRN conditioned media (ATCC, cat. CRL-3276), 1.25 mM N-Acetyl-L-cysteine (Sigma-Aldrich, cat. A9165), 10 mM nicotinamide (Sigma-Aldrich, cat. N0636), 1X B-27 supplement (Thermo Fisher Scientific, cat. 17504044), 1X N-2 supplement (Thermo Fisher Scientific, cat. 17502048), and 10 microM Y-27632 dihydrochloride (Tocris Bioscience, Bristol, United Kingdom, cat. 1254). The 624824-186-R-J2-PDC line was cultured in 6C/Colon 1B media, which includes all 6A media components plus 50 ng/mL human EGF recombinant protein (Thermo Fisher Scientific, cat. PHG0311). […]

[1] = second compound 0.0316 µM, first compound 0.0316 µM
[2] = second compound 0.0316 µM, first compound 0.1 µM
[3] = second compound 0.0316 µM, first compound 0.316 µM
[4] = second compound 0.0316 µM, first compound 1 µM
[5] = second compound 0.0316 µM, first compound 3.16 µM
[6] = second compound 0.0316 µM, first compound 10 µM
[7] = second compound 0.1 µM, first compound 0.0316 µM
[8] = second compound 0.1 µM, first compound 0.1 µM
[9] = second compound 0.1 µM, first compound 0.316 µM
[10] = second compound 0.1 µM, first compound 1 µM
[11] = second compound 0.1 µM, first compound 3.16 µM
[12] = second compound 0.1 µM, first compound 10 µM
[13] = second compound 0.316 µM, first compound 0.0316 µM
[14] = second compound 0.316 µM, first compound 0.1 µM
[15] = second compound 0.316 µM, first compound 0.316 µM
[16] = second compound 0.316 µM, first compound 1 µM
[17] = second compound 0.316 µM, first compound 3.16 µM
[18] = second compound 0.316 µM, first compound 10 µM
[19] = second compound 1 µM, first compound 0.0316 µM
[20] = second compound 1 µM, first compound 0.1 µM
[21] = second compound 1 µM, first compound 0.316 µM
[22] = second compound 1 µM, first compound 1 µM
[23] = second compound 1 µM, first compound 3.16 µM
[24] = second compound 1 µM, first compound 10 µM
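Note: spheroids exposed to compounds for seven days before viability reading.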

CCCS(=O)(=O)Nc1ccc(F)c(C(=O)c2c[nH]c3ncc(-c4ccc(Cl)cc4)cc23)c1F + COc1c(OCCCN2CCOCC2)ccc2c3n(c(=NC(=O)c4cnc(N)nc4)nc12)CCN3
5.31: pIC50 (second compound 0.00316 µM)
> 7.50: pIC50 (second compound 0.1 µM) | pIC50 (second compound 0.316 µM) | pIC50 (second compound 1 µM)
5.29: pIC50 (second compound 0.0316 µM)
5.25: pIC50 (second compound 0.01 µM)
inactive: viability, T/C (second compound 0.00316 µM, first compound 0.0316 µM) 114% | viability, T/C (second compound 0.00316 µM, first compound 0.1 µM) 99.1% | viability, T/C (second compound 0.00316 µM, first compound 0.316 µM) 84.9% | viability, T/C (second compound 0.00316 µM, first compound 1 µM) 83.5% | viability, T/C (second compound 0.00316 µM, first compound 3.16 µM) 79.4% | viability, T/C (second compound 0.00316 µM, first compound 10 µM) 14.2% | viability, T/C (second compound 0.01 µM, first compound 0.0316 µM) 105% | viability, T/C (second compound 0.01 µM, first compound 0.1 µM) 90.1% | viability, T/C (second compound 0.01 µM, first compound 0.316 µM) 110% | viability, T/C (second compound 0.01 µM, first compound 1 µM) 90.3% | viability, T/C (second compound 0.01 µM, first compound 3.16 µM) 87% | viability, T/C (second compound 0.01 µM, first compound 10 µM) 13.8% | viability, T/C [1] 81.1% | viability, T/C [2] 68.5% | viability, T/C [3] 96.3% | viability, T/C [4] 88.2% | viability, T/C [5] 77.9% | viability, T/C [6] 12.2% | viability, T/C [7] 23.1% | viability, T/C [8] 27.3% | viability, T/C [9] 29.4% | viability, T/C [10] 46.7% | viability, T/C [11] 46% | viability, T/C [12] 7.08%
active: viability, T/C [13] 7.65% | viability, T/C [14] 8.23% | viability, T/C [15] 7.39% | viability, T/C [16] 8.35% | viability, T/C [17] 12.3% | viability, T/C [18] 2.99% | viability, T/C [19] 3.27% | viability, T/C [20] 3.82% | viability, T/C [21] 3.96% | viability, T/C [22] 4.58% | viability, T/C [23] 7.64% | viability, T/C [24] 2.38%

CNC(=O)c1ccc(N2C(=S)N(c3ccc(C#N)c(C(F)(F)F)c3)C(=O)C2(C)C)cc1F + Cc1nc(NC(=O)N2CCCC2C(N)=O)sc1-c1ccnc(C(C)(C)C(F)(F)F)c1
inactive: viability, T/C [1] 83.5% | viability, T/C [2] 90% | viability, T/C [3] 102% | viability, T/C [4] 91.9% | viability, T/C [5] 103% | viability, T/C [6] 109% | viability, T/C [7] 106% | viability, T/C [8] 92.5% | viability, T/C [9] 109% | viability, T/C [10] 100% | viability, T/C [11] 114% | viability, T/C [12] 95.4% | viability, T/C [13] 97.1% | viability, T/C [14] 95.5% | viability, T/C [15] 92% | viability, T/C [16] 115% | viability, T/C [17] 102% | viability, T/C [18] 86.1% | viability, T/C [19] 106% | viability, T/C [20] 96% | viability, T/C [21] 111% | viability, T/C [22] 105% | viability, T/C [23] 103% | viability, T/C [24] 86% | viability, T/C (second compound 3.16 µM, first compound 0.0316 µM) 62.7% | viability, T/C (second compound 3.16 µM, first compound 0.1 µM) 62.6% | viability, T/C (second compound 3.16 µM, first compound 0.316 µM) 66.4% | viability, T/C (second compound 3.16 µM, first compound 1 µM) 66.7% | viability, T/C (second compound 3.16 µM, first compound 3.16 µM) 70.1% | viability, T/C (second compound 3.16 µM, first compound 10 µM) 58.7% | viability, T/C (second compound 10 µM, first compound 0.0316 µM) 13.9% | viability, T/C (second compound 10 µM, first compound 0.1 µM) 17.7% | viability, T/C (second compound 10 µM, first compound 0.316 µM) 14.7% | viability, T/C (second compound 10 µM, first compound 1 µM) 14% | viability, T/C (second compound 10 µM, first compound 3.16 µM) 15.5% | viability, T/C (second compound 10 µM, first compound 10 µM) 13.8%
> 7.50: pIC50 (second compound 10 µM)
< 5.00: pIC50 (second compound 0.0316 µM) | pIC50 (second compound 0.1 µM) | pIC50 (second compound 0.316 µM) | pIC50 (second compound 1 µM) | pIC50 (second compound 3.16 µM)
